Some test systems named below: HOP-62; OVCAR-8; RXF 393; HCT-116; NCI-H522; UACC-257; Malme-3M; SF-295; HL-60; CAKI-1; SF-268; SNB-75; SR; SK-MEL-28; NCI-H23; HCC 2998.
Common to all, as to test: growth of human tumour cells (NCI), 48 h

The record followed here is ChEMBL document CHEMBL1201862, “PubChem BioAssay data set” (2004).

Molecules are shown by their SMILES.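 Protocol summary: plate cells (96-well), add compound at 5 concentrations, incubate 48 h, interpolate endpoints linearly. GI50 = concentration required for 50% inhibition of growth.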 Calls of active or inactive are those of the source. No stated cut-off is given here; in the data, active = GI50 up to about 1.1 µM and inactive = higher. Some results are limits rather than exact numbers.

As for `O=C(Nc1nc2ncn(CCO)c2c(=S)[nH]1)c1ccccc1`, the GI50 with HOP-62, in the test on OVCAR-8, in the test with RXF 393, in the test with HCT-116, in the test on NCI-H522 and in the test with UACC-257 was > 100 µM (inactive) in each case. For the same compound, the GI50 in the test with Malme-3M, in the test with SF-295, with HL-60, in the test on CAKI-1, in the test on SF-268 and with SNB-75 was > 100 µM (inactive) each time. Also, the GI50 in the test with SR was > 100 µM (inactive).

Consider `COc1cc2c(c(OC)c1OC)-c1ccc(SC)c(=O)cc1[C@@H](NCc1ccc(F)cc1)CC2`, for which the GI50 is < 0.0075 µM (active) with HOP-62; < 0.0075 µM (active) in the test with OVCAR-8; < 0.0075 µM (active) in the test on RXF 393; < 0.0075 µM (active) in the test on HCT-116; 8.77 µM (inactive) in the test with SK-MEL-28; < 0.0075 µM (active) in the test with NCI-H522. The GI50 in the test with UACC-257 was 0.0117 µM (active); in the test with Malme-3M, < 0.0075 µM (active); in the test on SF-295 it was < 0.0075 µM (active); with HL-60 it was 0.1 µM (active); with CAKI-1, 1.69 µM (inactive); in the test on NCI-H23, < 0.0075 µM (active). In addition, the GI50 was < 0.0075 µM (active) in the test on SF-268, < 0.0075 µM (active) in the test with HCC 2998, 12.7 µM (inactive) with SNB-75 and < 0.0075 µM (active) with SR.

As to `Cc1nc2cc(N)c(F)cc2[nH]1`, the GI50 in the test on HOP-62, with OVCAR-8, in the test on RXF 393, in the test with SK-MEL-28, with NCI-H522 and with UACC-257 was > 100 µM (inactive) in each case. The GI50 in the test with Malme-3M, in the test with SF-295, with HL-60, in the test on CAKI-1, in the test on NCI-H23 and in the test with SF-268 was > 100 µM (inactive) in each case. For the same compound, the GI50 with SR is > 100 µM (inactive).

As to `CCOC(=O)C(OCC1CC=CCC1)Sc1ccccc1` (centres undefined), the GI50 with HOP-62, in the test on OVCAR-8, in the test on HCT-116, in the test with SK-MEL-28, in the test with NCI-H522 and in the test with UACC-257 was > 100 µM (inactive) in each case. The GI50 in the test on Malme-3M, in the test on SF-295, with HL-60, in the test with CAKI-1, in the test on NCI-H23 and in the test on SF-268 was > 100 µM (inactive) throughout. In addition, the results for the GI50 in the test with HCC 2998, in the test with SNB-75 and in the test with SR were > 100 µM (inactive), > 100 µM (inactive) and 1.77 µM (inactive), respectively.

Take `O=C1C/C(Br)=C\c2ccccc2-c2ccccc21`: the GI50 in the test with HOP-62 is 3.05 µM (inactive); with OVCAR-8 it was 2.19 µM (inactive); in the test on RXF 393, 1.43 µM (inactive); in the test with HCT-116, 1.8 µM (inactive); with SK-MEL-28, 1.05 µM (active); in the test on NCI-H522, 0.429 µM (active). Besides, the GI50 with UACC-257 was 4.19 µM (inactive); with Malme-3M, 2.16 µM (inactive); with SF-295, 4.98 µM (inactive); with HL-60, 1.71 µM (inactive); in the test with CAKI-1 it was 1.98 µM (inactive); with NCI-H23 it was 3.16 µM (inactive). The GI50 in the test with SF-268 was 2.85 µM (inactive); with HCC 2998 it was 7.14 µM (inactive); in the test on SNB-75 it was 2.26 µM (inactive); with SR, 0.405 µM (active).

Regarding `CCCC(=O)Nc1ccc(O)c2c1C1CCCCCC21` (centres undefined), the GI50 was > 100 µM (inactive) in the test on HOP-62; > 100 µM (inactive) in the test with OVCAR-8; 39.1 µM (inactive) with RXF 393; 85.3 µM (inactive) in the test on HCT-116; > 100 µM (inactive) in the test with SK-MEL-28; 75.5 µM (inactive) in the test with NCI-H522. The GI50 in the test with UACC-257 was 46.7 µM (inactive); in the test with Malme-3M, > 100 µM (inactive); in the test with SF-295, 50.2 µM (inactive); in the test with HL-60, > 100 µM (inactive); with NCI-H23, > 100 µM (inactive); in the test with SF-268, > 100 µM (inactive). In addition, the GI50 in the test with SNB-75 was 72.3 µM (inactive); with SR, 82.2 µM (inactive).

With `O=C1C=C(O)C(=Cc2c(O)cc(O)cc2O)C(O)=C1`, the GI50 with HOP-62, with OVCAR-8, in the test on RXF 393, in the test with HCT-116, in the test on NCI-H522 and in the test with UACC-257 was > 100 µM (inactive) in each case. The GI50 with Malme-3M, in the test on SF-295, in the test on HL-60, with CAKI-1, with NCI-H23 and in the test on SF-268 was > 100 µM (inactive) in each case. Further, the GI50 in the test with HCC 2998, with SNB-75 and with SR was > 100 µM (inactive) throughout.

With `O=C(CCC(=O)Nc1ccc(Cl)cc1)CC(=O)c1ccc2ccccc2c1`, the GI50 in the test with HOP-62, with OVCAR-8, in the test with RXF 393, in the test on HCT-116, in the test on SK-MEL-28 and in the test with NCI-H522 was > 100 µM (inactive) each time. Moreover, the GI50 in the test on UACC-257, in the test with Malme-3M, in the test on SF-295, in the test on HL-60, in the test on CAKI-1 and in the test on NCI-H23 was > 100 µM (inactive) in each case. For the same compound, the GI50 in the test on SF-268, with HCC 2998, with SNB-75 and in the test with SR was > 100 µM (inactive) each time.

With `Cc1ccc(NC(=O)C(=O)C(C2C(C)CC(=O)C2CC(=O)O)[N+](=O)[O-])cc1` (centres undefined), the GI50 with HOP-62, with OVCAR-8, in the test on RXF 393, in the test on HCT-116, in the test with SK-MEL-28 and with UACC-257 was > 100 µM (inactive) in each case. Further, the GI50 in the test with Malme-3M, in the test on SF-295, in the test on HL-60, with CAKI-1, in the test with NCI-H23 and in the test on SF-268 was > 100 µM (inactive) in each case. The GI50 in the test with HCC 2998, in the test on SNB-75 and in the test on SR was > 100 µM (inactive) in each case.

As for `C1OC1CN1CCN(CC2CO2)CC1` (centres undefined), the GI50 is 24.2 µM (inactive) in the test on HOP-62; > 75.7 µM (inactive) in the test with OVCAR-8; > 100 µM (inactive) with RXF 393; 72.8 µM (inactive) in the test on HCT-116; > 100 µM (inactive) in the test on SK-MEL-28; > 100 µM (inactive) in the test with NCI-H522. Besides, the GI50 in the test with UACC-257 was > 100 µM (inactive); in the test with Malme-3M it was > 100 µM (inactive); in the test on SF-295, 42 µM (inactive); with HL-60, 4.85 µM (inactive); in the test on CAKI-1, 26.7 µM (inactive); in the test on NCI-H23 it was 22.1 µM (inactive). Moreover, the GI50 with SF-268 was 22.8 µM (inactive); in the test on HCC 2998, > 100 µM (inactive); in the test on SNB-75, 38.2 µM (inactive); in the test on SR it was 2.42 µM (inactive).

`COC(=O)c1nn(-c2ccccc2)c(=O)cc1N=[N+]=[N-]`: the GI50 in the test with HOP-62, in the test with OVCAR-8, with RXF 393, in the test with HCT-116, with SK-MEL-28 and in the test with NCI-H522 was > 100 µM (inactive) in each case. Further, the GI50 with UACC-257, with Malme-3M, with SF-295, in the test on HL-60, in the test on CAKI-1 and in the test with NCI-H23 was > 100 µM (inactive) each time. Further, the GI50 in the test with SF-268, with HCC 2998 and with SR was > 100 µM (inactive) throughout.

Regarding `CCCC(=O)C(CC)/C(CCC(=O)N(Cc1ccccc1)Cc1ccccc1)=N/NC(=O)C[N+](C)(C)C` (centres undefined), the GI50 with HOP-62, with OVCAR-8, in the test with RXF 393, with HCT-116, with SK-MEL-28 and in the test with NCI-H522 was > 100 µM (inactive) throughout. In addition, the GI50 in the test with UACC-257, with Malme-3M, in the test with SF-295, in the test on HL-60, in the test on CAKI-1 and in the test on NCI-H23 was > 100 µM (inactive) in each case. For the same compound, the GI50 in the test on SF-268, in the test with SNB-75 and in the test with SR was > 100 µM (inactive) in each case.

`O=C1NC2=C(CCCCC/C2=N\O)C12CCCCCC2`: the GI50 with HOP-62, in the test on OVCAR-8, in the test with RXF 393, in the test with HCT-116, with SK-MEL-28 and in the test with NCI-H522 was > 100 µM (inactive) throughout. For the same compound, the GI50 with UACC-257, with Malme-3M, in the test on SF-295, with HL-60, in the test with CAKI-1 and with NCI-H23 was > 100 µM (inactive) each time. Further, the GI50 with SF-268, with SNB-75 and in the test with SR was > 100 µM (inactive) in each case.
